The record followed here is patent US20110237493A1, “DIPEPTIDE LINKED MEDICINAL AGENTS” (priority 2008, published 2011).

As a reminder, the half-life is how long it takes for the measured level to halve. Read a high half-life as slow decline.

Molecules are shown by their SMILES. Read-outs that look alike come from different tables or passages of the source. Where a SMILES comes first, the peptide text is derived from it. [ ]: non-standard residue; d: D form. NHexGly = CCCCCCNCC(=O)O; Sar = CNCC(=O)O

A short description of data set [1]: Rate of model dipeptide cleavage in PBS (HPLC / LC-MS). Particulars: for half-life at 1 mg/ml: buffer; for Relative peak area (%) HPLC peak a (molecular weight 702) / Relative peak area (%) HPLC peak b (molecular weight 902): PBS, 37° C. How it is done:
The solution was incubated at 37° C. […] The dipeptide cleavage was quenched by lowering the pH with an equal volume of 0.1% TFA. The rate of cleavage was qualitatively monitored by LC-MS and quantitatively studied by HPLC. The retention time and relative peak area for the prodrug and the parent model peptide were quantified using Peak Simple Chromatography software.
The flow rate was 1 ml/min.
The concentrations of the prodrugs and the model parent peptide were determined by their respective peak areas, ‘a’ and ‘b’ for each of the different collection times (Table 1). […] The slope of this plot provides the rate constant ‘k’.

The conditions of data set [2]: plasma.

In data set [1], `CCCCCCN(CC(=O)N[C@@H](Cc1c[nH]cn1)C(=O)N[C@@H](CO)C(=O)N[C@@H](CCCNC(=N)N)C(=O)NCC(=O)N[C@H](C(=O)N[C@@H](Cc1ccccc1)C(N)=O)[C@@H](C)O)C(=O)CN` [Compound 29] (H-G[NHexGly]HSRGTF-NH2) showed a half-life at 1 mg/ml of 70 h.
In data set [1], `CCCCCCN(CC(=O)N[C@@H](Cc1c[nH]cn1)C(=O)N[C@@H](CO)C(=O)N[C@@H](CCCNC(=N)N)C(=O)NCC(=O)N[C@H](C(=O)N[C@@H](Cc1ccccc1)C(N)=O)[C@@H](C)O)C(=O)C(C)(C)N` [Compound 25] gave a half-life at 1 mg/ml of 0.167 h. This half-life at 1 mg/ml is about 420-fold lower than that of the molecule before.
In the case of `C[C@@H](O)[C@H](NC(=O)CNC(=O)[C@H](CCCNC(=N)N)NC(=O)[C@H](CO)NC(=O)[C@H](Cc1c[nH]cn1)NC(=O)CN(C)C(=O)[C@@H](N)CCCCN)C(=O)N[C@@H](Cc1ccccc1)C(N)=O` [Compound 33], the “t1/2 of cleavage of dipeptide A-B” value in data set [1] (in PBS, A-B linked to position 1 (X) of model hexapeptide XSRGTF-NH2) turned out to be 14 h.
In turn, `C[C@@H](O)[C@H](NC(=O)CNC(=O)[C@H](CCCNC(=N)N)NC(=O)[C@H](CO)NC(=O)[C@H](Cc1c[nH]cn1)NC(=O)CN(C)C(=O)[C@H](N)CCCCN)C(=O)N[C@@H](Cc1ccccc1)C(N)=O` [Compound 30] gave a half-life at 1 mg/ml in data set [1] of 27 h.
Take `C[C@H](O)[C@@H](NC(=O)CNC(=O)[C@@H](CCCNC(=N)N)NC(=O)[C@H](NC(=O)[C@@H](Cc1c[nH]cn1)NC(=O)CN(C)C(=O)[C@@H](N)CCCCN)[C@H](C)O)C(=O)N[C@H](Cc1ccccc1)C(N)=O` [peptide B, Lys-Sar-dHdTdRGdTdF-NH2] (H-K[Sar][dH][dT][dR]G[dT][dF]-NH2): the “Relative peak area (%) HPLC peak a (molecular weight 702)” value was 17.0% in data set [2] (5 h); 29.2% in data set [2] (11 h); 60.2% in data set [2] (24 h); 54.0% in data set [2] (32 h); 27.6% in data set [2] (48 h). The “Relative peak area (%) HPLC peak b (molecular weight 902)” value in data set [2] (5 h) was 83.0%; in data set [2] (11 h), 70.8%; in data set [2] (24 h) it was 39.8%; in data set [2] (32 h), 46.0%; in data set [2] (48 h) it was 72.4%.
On to `C[C@@H](O)[C@H](NC(=O)CNC(=O)[C@H](CCCNC(=N)N)NC(=O)[C@H](CO)NC(=O)[C@H](Cc1c[nH]cn1)NC(=O)CN(C)C(=O)[C@@H](N)CO)C(=O)N[C@@H](Cc1ccccc1)C(N)=O` [Compound 35] (H-S[Sar]HSRGTF-NH2), for which the half-life at 1 mg/ml in data set [1] is 17 h.
The same measure, in the same setting: the same measure for `C[C@@H](O)[C@H](NC(=O)CNC(=O)[C@H](CCCNC(=N)N)NC(=O)[C@H](CO)NC(=O)[C@H](Cc1c[nH]cn1)NC(=O)CN(C)C(=O)CN)C(=O)N[C@@H](Cc1ccccc1)C(N)=O` [Compound 27] (H-G[Sar]HSRGTF-NH2): 104 h; for `C[C@@H](O)[C@H](NC(=O)CNC(=O)[C@H](CCCNC(=N)N)NC(=O)[C@H](CO)NC(=O)[C@H](Cc1c[nH]cn1)NC(=O)CN(C)C(=O)[C@@H](N)Cc1ccccc1)C(=O)N[C@@H](Cc1ccccc1)C(N)=O` [Compound 34] (H-F[Sar]HSRGTF-NH2): 29 h.
For the molecule `C[C@@H](O)[C@H](NC(=O)CNC(=O)[C@H](CCCNC(=N)N)NC(=O)[C@H](CO)NC(=O)[C@H](Cc1c[nH]cn1)NC(=O)CN(C)C(=O)[C@@H](N)CCCCN)C(=O)N[C@@H](Cc1ccccc1)C(N)=O` [peptide A, Lys-Sar-HSRGTF-NH2], the “Relative peak area (%) HPLC peak a (molecular weight 702)” value in data set [1] (5 h) turned out to be 26.5%; in data set [1] (8 h), 28.9%; in data set [1] (24 h), 28.8%; in data set [1] (31 h), 77.7%; in data set [1] (47 h), 90.0%. For the same molecule, the “Relative peak area (%) HPLC peak b (molecular weight 902)” value in data set [1] (5 h) is given as 73.5%; in data set [1] (8 h) it was 71.1%; in data set [1] (24 h), 71.2%; in data set [1] (31 h), 22.3%; in data set [1] (47 h), 10.0%. The molecule also gave a half-life at 1 mg/ml in data set [1] of 14 h.
With `C[C@@H](O)[C@H](NC(=O)CNC(=O)[C@H](CCCNC(=N)N)NC(=O)[C@H](CO)NC(=O)[C@H](Cc1c[nH]cn1)NC(=O)CN(C)C(=O)[C@@H]1CCCN1)C(=O)N[C@@H](Cc1ccccc1)C(N)=O` [Compound 36] (H-P[Sar]HSRGTF-NH2), the half-life at 1 mg/ml in data set [1] is 181 h.
The same measure, in the same setting: then `C[C@@H](O)[C@H](NC(=O)CNC(=O)[C@H](CCCNC(=N)N)NC(=O)[C@H](CO)NC(=O)[C@H](Cc1c[nH]cn1)NC(=O)CN(C)C(=O)C(C)(C)N)C(=O)N[C@@H](Cc1ccccc1)C(N)=O` [Compound 24], with 0.817 h; and `C[C@@H](O)[C@H](NC(=O)CNC(=O)[C@H](CCCNC(=N)N)NC(=O)[C@H](CO)NC(=O)[C@H](Cc1c[nH]cn1)NC(=O)CN(C)C(=O)CO)C(=O)N[C@@H](Cc1ccccc1)C(N)=O` [Compound 28], with 149 h.
